Laboratory results published in US20130296236A1, “TREATMENT PROTOCOL OF DIABETES TYPE 2” (priority 2011, published 2013).

Test system: patients with type 2 diabetes
Type: in vivo, human
Settings: reduction from […]; insulin glargine on top of metformin +/- TZDs, before randomized treatment
Description: The study consisted of 3 periods: (1) an up to 14-week screening period, which included an up to 2-week screening phase and a 12-week run-in phase with the introduction and titration of insulin glargine on top of metformin+/−TZDs; patients started insulin glargine once daily and titrated the insulin dose by a treat-to-target regimen to reach a glycemic target of FPG 100-80 mg/dl (5.6-4.4 mmol/L) during run-in.
Of note, per protocol, insulin dose adjustment to maintain fasting plasma glucose at target was allowed in both treatment groups throughout the study.

Gly(A21)-Arg(B31)-Arg(B32)-human insulin [insulin glargine]
Mean HbA1c after the 12-week run-in phase, lixisenatide group: 7.56%
Mean HbA1c after the 12-week run-in phase, placebo group: 7.60%
